We go through 32 compounds from patent US9284350B2, “IAP BIR domain binding compounds” (Pharmascience Inc., priority 2010, dated 2016).

Structures are written as SMILES. pEC50, pKi: −log10 of the molar value.

In assay [1] the test system is Colorectal carcinoma HCT116 cells. Description: Cell death assay (MTT) in combination with HGS ETR1. It counts as cell-based. To be noted: with HGS ETR1 30 ng/ml, 72 hours, read-out: HCT116+ mapatubimap EC50. The protocol: Colorectal carcinoma HCT116 cells were cultured as monolayers in 96 well plates at a density of 2000 cells per well in McCoy's 5a medium (HyClone) supplemented with 2.2 g/L sodium bicarbonate, 10% FBS (HyClone) and 1% penicillin/streptomycin (HyClone). 24 hours later, triplicate wells were treated with HGS ETR1 (30 ng/ml) in combination with compound. Cells were incubated in the presence of compound and HGS agonistic Trail receptor antibody, ETR1 (Mapatumamab, 30 ng/ml) for 72 hours. Metabolic viability of remaining cells was assessed by MTT (thiazolyl blue tetrazolium bromide, Sigma) assay.
EC50 values (50% cell survival in the presence of compound as compared to untreated controls) were calculated from survival curves using BioAssay software (CambridgeSoft) and GraphPad Prism (Graph Pad Software Inc.). The results are provided in Table 3, below, wherein A=less than 50 nM; B=less than 250 nM; C=less than 1000 nM; and D=greater than 1000 nM.

For assay [2], the target named is T1, XIAP (Homo sapiens, UniProt P98170).
T1 construct: fused on or other part: GST tag at the N-terminus (pGEX4T vectors)
Description: Fluorescence polarization-based competition assay, XIAP. To be noted: FP assay, ki derived from IC50. It counts as binding. The protocol: (§1) Binding of compounds of Formula 1 to target BIR domains was measured using a fluorescence-polarization (FP) assay. Fluorescence-polarization was evaluated using a GENios microplate reader (TECAN) Pro instrument with the excitation filter set at 485 nm and the emission filter set at 535 nm. The final amount of protein used in the assay corresponds to the amount of protein necessary to obtain 80% of the maximum FP value in a P1 or P2 fluorescent (FITC) probe saturation experiment. The compounds potency (IC50) and selectivity, was assessed in the presence of the amount of target protein established, fluorescent probe, and a 10 point serial dilution in assay buffer (50 mM Hepes, pH 7.5, 250 mcg/mL γ-globulin, 2 mM DTT, 1% DMSO) of the selected compounds.
(§2) Assays were carried out in duplicate using untreated black 96-well plates (Corning #3915) and a total volume of 100 microliters, containing 25 microliters of fluorescent probe at a final concentration of 2 nM in assay buffer, 25 microliters of diluted compound, 25 microliters of BIR protein into assay buffer and 25 microliters of assay buffer. Buffer only (blank) or probe only in buffer (G-factor) were used as controls for calibration. The plate was incubated at room temperature in the dark for one hour and FP values in millipolarization units (mP) were recorded using Genios Pro FP reader.
(§3) The measured FP values (mP) were then plotted against compound concentration, and IC50 values were calculated based on a sigmoidal dose-response (variable-slope) curve fit using GraphPad Prism version 4.02 for Windows, GraphPad Software, San Diego Calif. USA and/or CambridgeSoft BioAssay Enterprise Version 10.1. The IC50 value is the concentration of test compound at which 50% of the tracer was displaced. ki values were derived from the calculated IC50 values as described above and according to the equation described in Nikolovska-Coleska, Z. (2004) Anal Biochem 332, 261-273. The results are presented in Table 2, wherein A=less than 25 nM; B=less than 250 nM; C=less than 1000 nM; and D=greater than 1000 nM.
Background: Fluorescence polarisation rises when a labelled molecule tumbles more slowly, as on binding a larger partner.

For assay [3], the target named is T2, c-IAP1 (Homo sapiens, UniProt Q13490).
T2 construct: GST (N); made in house; host or cells: E. coli DH5α
Description: Fluorescence polarization-based competition assay, c-IAP1. It counts as binding. Particulars: FP assay, ki derived from IC50. The protocol:
as §1, §2, §3

T1 sequence (P98170 246-497 limits assumed): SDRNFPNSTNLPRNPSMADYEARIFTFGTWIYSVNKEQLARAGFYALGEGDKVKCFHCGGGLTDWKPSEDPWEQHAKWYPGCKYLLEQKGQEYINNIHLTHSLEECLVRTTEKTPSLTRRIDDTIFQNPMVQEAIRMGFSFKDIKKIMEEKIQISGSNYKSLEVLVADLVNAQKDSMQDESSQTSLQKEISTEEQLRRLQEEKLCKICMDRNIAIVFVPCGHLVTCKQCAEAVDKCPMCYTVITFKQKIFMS
T2 sequence (Q13490 251-363): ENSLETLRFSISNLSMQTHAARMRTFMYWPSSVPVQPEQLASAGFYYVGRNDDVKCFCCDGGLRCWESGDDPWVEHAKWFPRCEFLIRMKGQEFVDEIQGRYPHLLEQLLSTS

What is called pEC50 is the negative decadic logarithm of the EC50, by convention in mol/L. Usually pKi stands for the Ki on a negative log10 scale, so that one unit is a factor of ten. Consider `CN[C@@H](C)C(=O)N[C@H](C(=O)N1CCC[C@H]1CN(CCc1ccc(F)cc1)C(=O)C(=O)Nc1ccc(F)cc1)C(C)(C)C` [Compound 42], for which the pEC50 in assay [1] was > 6.00. Also, the pKi in assay [2] is > 6.60; in assay [3] it was > 7.60.

For `CN[C@@H](C)C(=O)N[C@H](C(=O)N1CCC[C@H]1CN(CCc1ccccc1)C(=O)c1cc2ccccn2c1)C(C)(C)C` [Compound 8], the pEC50 in assay [1] is > 6.60. In addition, the pKi in assay [2] and in assay [3] was > 7.60 in each case.

As to `CN[C@@H](C)C(=O)N[C@H](C(=O)N1CCC[C@H]1CN(CCc1ccccc1)C(=O)c1ncc[nH]1)C(C)(C)C` [Compound 22], in assay [1], the negative-log EC50 (pEC50) is > 6.60. For the same compound, the pKi in assay [2] was > 6.60; in assay [3], > 7.60.

As for `CN[C@@H](C)C(=O)N[C@H](C(=O)N1CCC[C@H]1CN(CCc1ccc(F)cc1)C(=O)c1cnc2ncccn12)C(C)(C)C` [Compound 38], in assay [1], the pEC50 was > 6.60.

With `CN[C@@H](C)C(=O)N[C@H](C(=O)N1C[C@@H](Oc2ccc(F)cc2)C[C@H]1CN(CCc1ccc(F)cc1)C(=O)c1cc(C)n(C)n1)C(C)(C)C` [Compound 121], the pEC50 in assay [1] was > 7.30.

As to `CN[C@@H](C)C(=O)N[C@H](C(=O)N1CCC[C@H]1CN(CCc1ccc(F)cc1)C(=O)c1cn(-c2c(C)cccc2C)cn1)C(C)(C)C` [Compound 54], the pEC50 in assay [1] is > 7.30. The results for the pKi in assay [2] and in assay [3] were > 6.60 and > 7.60, respectively.

On to `CN[C@@H](C)C(=O)N[C@H](C(=O)N1CCC[C@H]1CN(CCc1ccccc1)C(=O)c1cn2cccnc2n1)C1CCCC1` [Compound 33], for which the pEC50 in assay [1] is > 6.60. The pKi was > 6.60 in assay [2] and > 7.60 in assay [3].

Regarding `CN[C@@H](C)C(=O)N[C@H](C(=O)N1CCC[C@H]1CN(CCc1ccccc1)C(=O)c1nc2ccccc2[nH]1)C(C)(C)C` [Compound 16], the pEC50 in assay [1] is > 6.00. Further, the pKi in assay [2] was > 6.60; in assay [3], > 7.60.

Take `CN[C@@H](C)C(=O)N[C@H](C(=O)N1CCC[C@H]1CN(CCc1ccc(F)cc1)C(=O)c1cn2cc(NC(C)=O)ccc2n1)C(C)(C)C` [Compound 43]: the pEC50 in assay [1] is > 6.60. Further, the figures for the negative logarithm of the Ki (pKi) in assay [2] and in assay [3] were > 6.60 and > 7.60, respectively.

With `CN[C@@H](C)C(=O)N[C@H](C(=O)N1CCC[C@H]1CN(CCc1ccccc1)C(=O)c1cn2c(n1)CCCC2)C(C)(C)C` [Compound 15], in assay [1], the pEC50 is > 6.60. In addition, the pKi in assay [2] was > 6.60; in assay [3], > 7.60.

Consider `CN[C@@H](C)C(=O)N[C@H](C(=O)N1CCC[C@H]1CN(CCc1ccccc1)C(=O)c1cn2cccnc2n1)C1CCCCC1` [Compound 5], for which the pEC50 in assay [1] was > 7.30. Also, the pKi in assay [2] is > 6.60; in assay [3] it was > 7.60.

With `CN[C@@H](C)C(=O)N[C@H](C(=O)N1CCC[C@H]1CN(CCc1ccccc1)C(=O)c1c[nH]cn1)C(C)(C)C` [Compound 21], the pEC50 in assay [1] was > 6.00. Besides, the values for the pKi in assay [2] and in assay [3] were > 6.60 and > 7.60, respectively.

Regarding `CN[C@@H](C)C(=O)N[C@H](C(=O)N1CCC[C@H]1CN(CCc1ccccc1)C(=O)c1cc2ccccc2n1C)C(C)(C)C` [Compound 26], the negative logarithm of the EC50 (pEC50) in assay [1] is > 6.00. Further, the figures for the pKi in assay [2] and in assay [3] were > 6.60 and > 7.60, respectively.

For the compound `CN[C@@H](C)C(=O)N[C@H](C(=O)N1C[C@@H](Oc2ccc(F)cc2)C[C@H]1CN(CCc1ccc(F)cc1)C(=O)c1cnn(-c2ccc(F)cc2)n1)C(C)(C)C` [Compound 119], in assay [1], the pEC50 is > 6.60.

For `CN[C@@H](C)C(=O)N[C@H](C(=O)N1CCC[C@H]1CN(CCc1ccc(F)cc1)C(=O)c1cn2cc(OC)ccc2n1)C(C)(C)C` [Compound 51], the pEC50 in assay [1] was > 6.60. Further, the values for the pKi in assay [2] and in assay [3] were > 6.60 and > 7.60, respectively.

Take `CN[C@@H](C)C(=O)N[C@@H](CN(C)C)C(=O)N1CCC[C@H]1CN(CCc1ccc(F)cc1)C(=O)c1cn2ccccc2n1` [Compound 57]: the pEC50 in assay [1] was > 6.00. Also, the pKi in assay [2] was > 6.00; in assay [3], > 7.60.

With `CN[C@@H](C)C(=O)N[C@H](C(=O)N1CCC[C@H]1CN(CCc1ccc(F)cc1)C(=O)C(=O)Nc1ccc(OC)cc1)C(C)(C)C` [Compound 41], in assay [1], the pEC50 is > 6.00. For the same compound, the pKi in assay [2] was > 6.60; in assay [3], > 7.60.

For `CC[C@H](N)C(=O)N[C@H](C(=O)N1CCC[C@H]1CN(CCc1ccccc1)C(=O)c1cn2ccccc2n1)C1CCCCC1` [Compound 29], the pEC50 in assay [1] was < 6.00. In addition, the pKi in assay [2] is > 6.00; in assay [3], > 7.60.

As to `CN[C@@H](C)C(=O)N[C@H](C(=O)N1CCC[C@H]1CN(CCc1ccc(F)cc1)C(=O)c1coc(-c2ccccc2)n1)C(C)(C)C` [Compound 64], the pEC50 in assay [1] was > 6.60. Also, the pKi in assay [2] was > 6.60; in assay [3], > 7.60.

In the case of `CN[C@@H](C)C(=O)N[C@H](C(=O)N1CCC[C@H]1CN(CCc1ccccc1)C(=O)c1cn2cccnc2n1)C1CCOCC1` [Compound 3], the pEC50 in assay [1] was > 6.00. The pKi was > 6.60 in assay [2] and > 7.60 in assay [3].

Take `CN[C@@H](C)C(=O)N[C@H](C(=O)N1CCC[C@H]1CN(CCc1ccccc1)C(=O)c1cc2ccccc2[nH]1)C(C)(C)C` [Compound 27]: the negative-log EC50 (pEC50) in assay [1] is > 6.00. Further, the pKi in assay [2] is > 6.60; in assay [3], > 7.60.

Take `CN[C@@H](C)C(=O)N[C@H](C(=O)N1CCC[C@H]1CN(CCc1ccccc1)C(=O)c1ccc[nH]1)C(C)(C)C` [Compound 23]: in assay [1], the pEC50 is > 6.60. Further, the pKi in assay [2] and in assay [3] was > 7.60 each time.

With `CN[C@@H](C)C(=O)N[C@H](C(=O)N1CCC[C@H]1CN(CCc1ccccc1)C(=O)c1cnc2ccccn12)C(C)(C)C` [Compound 28], the pEC50 in assay [1] was > 6.00. In addition, the pKi in assay [2] is > 6.60; in assay [3], > 7.60.

For the compound `CN[C@@H](C)C(=O)N[C@H](C(=O)N1CCC[C@H]1CN(CCc1ccc(F)cc1)C(=O)c1nc2ccccc2o1)C(C)(C)C` [Compound 62], in assay [1], the pEC50 was > 6.00. Also, the pKi in assay [2] was > 6.60; in assay [3] it was > 7.60.

Take `CN[C@@H](C)C(=O)N[C@H](C(=O)N1CCC[C@H]1CN(CCc1ccc(F)cc1)C(=O)c1cn2cc(O)cnc2n1)C(C)(C)C` [Compound 46]: in assay [1], the pEC50 is > 6.00. Besides, the negative-log Ki (pKi) is > 6.60 in assay [2] and > 7.60 in assay [3].

For `CN[C@@H](C)C(=O)N[C@H](C(=O)N1CCC[C@H]1CN(CCc1ccc(F)cc1)C(=O)c1cn2cc(F)ccc2n1)C(C)(C)C` [Compound 39], in assay [1], the pEC50 was > 6.60. The pKi in assay [2] was > 6.60; in assay [3] it was > 7.60.

Take `CN[C@@H](C)C(=O)N[C@H](C(=O)N1CCC[C@H]1CN(CCc1ccccc1)C(=O)c1cn(C)cn1)C(C)(C)C` [Compound 34]: the pEC50 in assay [1] was > 6.60. Also, the pKi in assay [2] is > 6.60; in assay [3], > 7.60.

As for `CN[C@@H](C)C(=O)N[C@H](C(=O)N1CCC[C@H]1CN(CCc1ccccc1)C(=O)C(=O)Nc1ccccc1)C(C)(C)C` [Compound 9], the negative-log EC50 (pEC50) in assay [1] was > 6.60. The results for the pKi in assay [2] and in assay [3] were > 6.60 and > 7.60, respectively.

Turning to `CN[C@@H](C)C(=O)N[C@H](C(=O)N1CCC[C@H]1CN(CCc1ccccc1)C(=O)c1cn2ccccc2n1)C1CCCCC1` [Compound 13], the pEC50 in assay [1] was > 6.60. The results for the pKi in assay [2] and in assay [3] were > 6.60 and > 7.60, respectively.

On to `CN[C@@H](C)C(=O)N[C@H](C(=O)N1CCC[C@H]1CN(CCc1ccc(F)cc1)C(=O)c1cc(C)n(C)n1)C(C)(C)C` [Compound 101], for which the pEC50 in assay [1] was > 7.30.

With `CN[C@@H](C)C(=O)N[C@H](C(=O)N1CCC[C@H]1CN(CCc1ccc(F)cc1)C(=O)c1cnn(-c2ccc(F)cc2)n1)C1CCCCC1` [Compound 118], the pEC50 in assay [1] was > 6.60.

For the compound `CN[C@@H](C)C(=O)N[C@H](C(=O)N1CCC[C@H]1CN(CCc1ccccc1)C(=O)c1cn(C)c2ccccc12)C(C)(C)C` [Compound 25], the pKi in assay [2] was > 6.60; in assay [3], > 7.60.
